For orientation: IC50 means the point on the concentration scale where inhibition reaches its midpoint. In general, IC90 refers to the point of the concentration-response curve where the effect stands at 90%.

The assay deals with Plasmodium berghei. The experiment in a line: Luciferase/luciferin-expressing antifolate-resistant parasites were used to infect a culture of HepG2 cells that were pre-incubated with compounds. Infected hepatocytes emit light due to the luciferase reaction. Assay results are presented as the percent inhibition of light emission compared to control. […]. The assay is classed as functional. As to conditions: sporozoite; for IC90: read-out: LUCIFERASE INFECTION ASSAY - IC90.

The mark [1] stands for this setting: read-out: LUCIFERASE INFECTION ASSAY - IC50.

As for `O=C(Nc1cccnc1)C1=COC2=NC(=O)N(Cc3ccccc3C(F)(F)F)CCN12`, the IC90 is above 10 µM. The IC50 under setting [1] is above 10 µM.

Take `Cc1cc(C)c(C)c(S(=O)(=O)N2CCN(S(=O)(=O)c3ccc(C(C)C)cc3)CC2)c1C`: the IC90 was above 10 µM. Further, the IC50 (PBLUC_HILL_SLOPE 10.5, PBLUC_R_SQUARED 0.247, read-out: LUCIFERASE INFECTION ASSAY - IC50) came out at 8.75 µM.

Take `Cc1c(C(=O)NC2CCN(Cc3ccccc3)C2)oc2c(Cl)cccc12` (stereo not given): the IC90 is above 10 µM. Moreover, the half-inhibitory concentration (IC50) under setting [1] is above 10 µM.

As for `CC1CCc2sc(C(=O)N(C)Cc3nc(=O)c4ccccc4[nH]3)cc2C1` (stereo not given), the IC90 worked out at 6.74 µM. Moreover, the IC50 (PBLUC_HILL_SLOPE 2.24, PBLUC_R_SQUARED 0.489, read-out: LUCIFERASE INFECTION ASSAY - IC50) stood at 2.52 µM.

`COc1ccc(C(C#N)=C2C=CC(=NO)C=C2)cc1`: the IC90 was above 13.1 µM. The IC50 (FFLUC_HILL_SLOPE 2.5, FFLUC_R_SQUARED 0.687, PBLUC_HILL_SLOPE 18.8, PBLUC_R_SQUARED 0.229, read-out: LUCIFERASE INFECTION ASSAY - IC50) worked out at 12.9 µM.

For the molecule `NC(Cc1ccc(Cl)cc1)c1csc(Nc2ncccn2)n1` (stereo not given), the IC90 was 5.31 µM. Besides, the IC50 (HEPG2TOX_HILL_SLOPE 6.68, HEPG2TOX_R_SQUARED 0.347, PBLUC_HILL_SLOPE 658, PBLUC_R_SQUARED 0.395, read-out: LUCIFERASE INFECTION ASSAY - IC50) stood at 5.29 µM.

`CC(C)c1cc(C(=O)N2CCc3c(cc(-c4cccc(F)c4)c(=O)n3CCN3CCCCC3)C2)[nH]n1`: the IC90 is above 6.71 µM. The IC50 (PBLUC_HILL_SLOPE 1.58, PBLUC_R_SQUARED 0.377, read-out: LUCIFERASE INFECTION ASSAY - IC50) was determined as 1.78 µM.

In the case of `Cc1ccc(-c2nc(COC(=O)Cc3ccccc3[N+](=O)[O-])cs2)cc1`, the IC90 was above 10 µM. The IC50 (HEPG2TOX_HILL_SLOPE 1.86, HEPG2TOX_R_SQUARED 0.968, PBLUC_HILL_SLOPE 3.1, PBLUC_R_SQUARED 0.491, read-out: LUCIFERASE INFECTION ASSAY - IC50) was found to be 6.23 µM.

Take `CCOC(=O)c1sc(N)c(C#N)c1COC(=O)/C=C/c1cn(-c2ccccc2)nc1-c1ccc(C)cc1`: the IC90 was above 10 µM. Also, the IC50 (PBLUC_HILL_SLOPE 3.64, PBLUC_R_SQUARED 0.326, read-out: LUCIFERASE INFECTION ASSAY - IC50) stood at 6.32 µM.

With `COc1ccc(C)cc1NC(=O)C(OC(=O)c1cccn1C)c1ccccc1` (stereo not given), the IC90 was above 10 µM. Also, the IC50 (PBLUC_HILL_SLOPE 2.21, PBLUC_R_SQUARED 0.0841, read-out: LUCIFERASE INFECTION ASSAY - IC50) was 8.87 µM.

On to `C=CC/N=c1\scc(-c2ccc(Br)s2)n1/N=C/c1ccccn1`, for which the IC90 stood at 4.27 µM. The IC50 under setting [1] is 3.59 µM.

Turning to `CC(=O)N(c1nc(/C=C/C(=O)c2cccc(Br)c2)cs1)c1ccc(F)cc1F`, the IC90 is above 10 µM. Besides, the IC50 (PBLUC_HILL_SLOPE 1.24, PBLUC_R_SQUARED 0.477, read-out: LUCIFERASE INFECTION ASSAY - IC50) amounted to 8.87 µM.

Take `COc1cc(OC)cc(C(=O)Nc2nc(C(N)C3CCCCC3)cs2)c1` (stereo not given): the concentration for an effect of 90% (IC90) was 5.41 µM. Under setting [1], the IC50 turned out to be 5.25 µM.

With `CC(=C\c1ccc(Cl)cc1)/C(C)=N/O` [AP18 5], the IC90 was determined as 5.3 µM. Further, the IC50 (HEPG2TOX_HILL_SLOPE 1.12, HEPG2TOX_R_SQUARED 0.98, PBLUC_HILL_SLOPE 2.33, PBLUC_R_SQUARED 0.772, read-out: LUCIFERASE INFECTION ASSAY - IC50) was 2.07 µM.

`Nc1nc(Cl)cc(NCCc2ccccc2)n1`: the IC90 is above 13.3 µM. Besides, the IC50 (HEPG2TOX_HILL_SLOPE 4.29, HEPG2TOX_R_SQUARED 0.965, PBLUC_HILL_SLOPE 3.15, PBLUC_R_SQUARED 0.0969, read-out: LUCIFERASE INFECTION ASSAY - IC50) worked out at 10.4 µM.

In the case of `O=C(CCc1nc2ccccc2s1)OCCOc1ccccc1F`, the IC90 is above 10 µM. Further, the IC50 under setting [1] is above 10 µM.

With `CC(=O)c1cccc(NC(=O)Nc2ccc3nc(Cc4ccccc4)nn3c2)c1`, the IC90 is 4.13 µM. Besides, the IC50 (HEPG2TOX_HILL_SLOPE 12.7, HEPG2TOX_R_SQUARED 0.848, PBLUC_HILL_SLOPE 19.5, PBLUC_R_SQUARED 0.366, read-out: LUCIFERASE INFECTION ASSAY - IC50) is 3.69 µM.

In the case of `Cc1cc(NC(=O)COc2ccc(C(C)C)cc2)no1`, the IC90 was above 12 µM. Moreover, the IC50 under setting [1] is above 12 µM.

For `COc1cc(C)ccc1Oc1nc2cc(C)nn2c2ccccc12`, the IC90 was above 10 µM. For the setting “HEPG2TOX_HILL_SLOPE 1.87, HEPG2TOX_R_SQUARED 0.892, read-out: LUCIFERASE INFECTION ASSAY - IC50”, the IC50 is above 10 µM.

On to `O=C(Nc1cccc(SC(F)(F)C(F)(F)C(F)(F)F)c1)C1(S(=O)(=O)c2ccccc2)CC1`, for which the IC90 is above 10 µM. Under setting [1], the half-maximal inhibitory concentration (IC50) is above 10 µM.

`CCc1cc2c(COC(=O)c3cc(C(C)=O)cn3C)cc(=O)oc2cc1O`: the IC90 was above 10 µM. For the same molecule, where the note is “PBLUC_HILL_SLOPE 9.37, PBLUC_R_SQUARED 0.164, read-out: LUCIFERASE INFECTION ASSAY - IC50”, the IC50 was 8.69 µM.

For the molecule `COc1cc(-n2nnnc2-c2ccc([N+](=O)[O-])cc2)c(Cl)cc1Cl`, the IC90 is above 9.01 µM. Under setting [1], the IC50 is above 9.01 µM.

Turning to `Cc1ccc(-c2nnc(N/N=C3/C=C(c4ccccc4)C(O)(c4ccccc4)C3)c3ccccc23)cc1C` (stereo not given), the IC90 is above 10 µM. For the same molecule, where the note is “FFLUC_HILL_SLOPE 18, FFLUC_R_SQUARED 0.659, PBLUC_HILL_SLOPE 2.04, PBLUC_R_SQUARED 0.344, read-out: LUCIFERASE INFECTION ASSAY - IC50”, the IC50 stood at 6.48 µM.

On to `CCN(CC)C(CNC(=O)c1ccc2c(c1)OCC(=O)N2)c1ccccc1Cl` (stereo not given), for which the IC90 amounted to 8.02 µM. Besides, the IC50 (PBLUC_HILL_SLOPE 4.94, PBLUC_R_SQUARED 0.519, read-out: LUCIFERASE INFECTION ASSAY - IC50) amounted to 5.14 µM.

Regarding `Cc1nc(C(=O)NNC(=O)c2ccc(C(C)(C)C)cc2)cs1`, the IC90 worked out at 6.76 µM. For the same molecule, the IC50 (HEPG2TOX_HILL_SLOPE 1.77, HEPG2TOX_R_SQUARED 0.966, PBLUC_HILL_SLOPE 4.32, PBLUC_R_SQUARED 0.361, read-out: LUCIFERASE INFECTION ASSAY - IC50) is 4.06 µM.

For the molecule `Cn1ccnc1CN(C(=O)c1cnn(-c2ccccc2)c1)C1CC1`, the IC90 was above 10 µM. Further, the IC50 under setting [1] was above 10 µM.

In the case of `COCCCn1c(C)cc(C(=O)CSc2nc(C)nc3c2c(=O)n(C)c(=O)n3CC(C)C)c1C`, the IC90 is above 10 µM. Moreover, the IC50 under setting [1] was above 10 µM.

Regarding `S=c1[nH]c2ccccc2n1C1CCCCC1`, the IC90 was above 10 µM. In addition, the IC50 under setting [1] was above 10 µM.

On to `O=C(C1CC1)N1CCc2sccc2C1c1ccc(Cl)cc1` (stereo not given), for which the IC90 is above 10.4 µM. The IC50 (PBLUC_HILL_SLOPE 3.12, PBLUC_R_SQUARED 0.0785, read-out: LUCIFERASE INFECTION ASSAY - IC50) is 9.69 µM.

`COc1cc(OC)cc(-c2cn3c(-c4ccc(CO)cc4)cnc3cn2)c1`: the IC90 came to 8.34 µM. Besides, the IC50 (PBLUC_HILL_SLOPE 5.1, PBLUC_R_SQUARED 0.643, read-out: LUCIFERASE INFECTION ASSAY - IC50) came out at 5.42 µM.

Turning to `Cc1ccc2c(c1)C(c1ccccc1C(F)(F)F)CC(=O)N2` (stereo not given), the IC90 is above 10.8 µM. The IC50 (HEPG2TOX_HILL_SLOPE 2.11, HEPG2TOX_R_SQUARED 0.713, PBLUC_HILL_SLOPE 2.64, PBLUC_R_SQUARED 0.143, read-out: LUCIFERASE INFECTION ASSAY - IC50) is 5.8 µM.

In the case of `CN(C)c1cccc(-c2ccc3nnc(-c4cscn4)n3c2)c1`, the IC90 is above 10 µM. Besides, the IC50 under setting [1] was above 10 µM.

Regarding `Cc1cc(NNC(=O)Nc2cccc(Cl)c2)nc2c1c(C)nn2C`, the IC90 was above 9.57 µM. Moreover, where the note is “HEPG2TOX_HILL_SLOPE 1.19, HEPG2TOX_R_SQUARED 0.796, PBLUC_HILL_SLOPE 1.82, PBLUC_R_SQUARED 0.0269, read-out: LUCIFERASE INFECTION ASSAY - IC50”, the IC50 stood at 5.86 µM.

Turning to `Cc1onc(-c2c(Cl)cccc2Cl)c1CO/N=C(\C#N)c1c(Cl)cccc1Cl`, the IC90 is above 7.25 µM. Under setting [1], the IC50 is above 7.25 µM.

With `C/C(=N\NC(=S)NC(C)(C)C)c1ccc(OCc2ncc(C(F)(F)F)cc2Cl)cc1`, the IC90 amounted to 0.938 µM. Also, the IC50 under setting [1] is 0.801 µM.

Consider `Cc1c(C(=O)N2CCCCC2)sc2nc(-c3ccc(Cl)cc3)nn12`, for which the concentration for an effect of 90% (IC90) turned out to be 8.36 µM. In addition, under “FFLUC_HILL_SLOPE 28.1, FFLUC_R_SQUARED 0.294, PBLUC_HILL_SLOPE 1.44, PBLUC_R_SQUARED 0.531, read-out: LUCIFERASE INFECTION ASSAY - IC50”, the IC50 was found to be 1.82 µM.

On to `O=C(NC1CC1)c1ccc(-c2cn3c(-c4ccc(C(=O)NC5CC5)cc4)cnc3cn2)cc1`, for which the IC90 is above 7.54 µM. Under “HEPG2TOX_HILL_SLOPE 0.33, HEPG2TOX_R_SQUARED 0.326, PBLUC_HILL_SLOPE 6.32, PBLUC_R_SQUARED 0.0215, read-out: LUCIFERASE INFECTION ASSAY - IC50”, the IC50 was above 7.54 µM.

Take `Cc1c(Cl)cccc1NC(=O)CCc1nc(C(C)C)no1`: the IC90 was above 10 µM. Besides, the IC50 (FFLUC_HILL_SLOPE 18.3, FFLUC_R_SQUARED 0.35, read-out: LUCIFERASE INFECTION ASSAY - IC50) was above 10 µM.

Consider `COc1cc(-c2[nH]nc3nccc(-c4ccc(C(C)C)cc4)c23)cc(OC)c1OC`, for which the 90% effect concentration (IC90) was above 10 µM. Moreover, the IC50 (HEPG2TOX_HILL_SLOPE 2.15, HEPG2TOX_R_SQUARED 0.552, PBLUC_HILL_SLOPE 10.1, PBLUC_R_SQUARED 0.355, read-out: LUCIFERASE INFECTION ASSAY - IC50) was found to be 8.21 µM.

For `COC(=O)c1c(NC(=O)CN(C)Cc2ccc(OC(F)F)c(OC)c2)sc(C)c1C`, the IC90 is above 10 µM. Also, under setting [1], the IC50 was above 10 µM.
